Results published in publication PMC8508980, “Design, Synthesis and Anticancer Profile of New 4-(1H-benzo[d]imidazol-1-yl)pyrimidin-2-amine-Linked Sulfonamide Derivatives with V600EBRAF Inhibitory Effect” (International Journal of Molecular Sciences, 2021).

Assays:
Type in all cases: cell-based, human
[1] = test system: breast cancer cell lines; assay: NCI 60 screen, sub-panel mean; details: NCI-60, breast cancer sub-panel
Procedure: (§1) Anticancer profiling over a panel of 60 cancer cell lines was carried out at the National Cancer Institute (NCI), Bethesda, Maryland, USA, https://dtp.cancer.gov/discovery_development/nci-60/methodology.htm (Last visit 22 September 2021), using the standard procedure (detailed procedure is located in the Supplementary Information page 50 s).
(§2) NCI standard procedure for 60 cell lines assay
(§3) The human tumor cell lines of the cancer screening panel are grown in RPMI 1640 mediu m containing 5% fetal bovine serum and 2 mM L-glutamine. For a typical screening experiment, cells are inoculated into 96 well microtiter plates in 100 μL at plating densities ranging from 5,000 to 40,000 cells/well depending on the doubling time of individual cell lines. After cell inoculation, the microtiter plates are incubated at 37° C, 5 % CO2, 95 % air and 100 % relative humidity for 24 h prior to addition of experimental drugs.
(§4) After 24 h, two plates of each cell line are fixed in situ with TCA, to represent a measurement of the cell population for each cell line at the time of drug addition (Tz). Experimental drugs are solubilized in dimethyl sulfoxide at 400-fold the desired final maximum test concentration (10 µM) and stored frozen prior to use. At the time of drug addition, an aliquot of frozen concentrate is thawed and diluted to twice the desired final maximum test concentration with co mp lete medium containing 50 μg/ml gentamicin. Additional four, 10-fold or ½ log serial dilutions are made to provide a total of five drug concentrations plus control. Aliquots of 100 μl of these different drug dilutions are added to the appropriate microtiter wells already containing 100 μl of medium, resulting in the required final drug concentrations.
(§5) Following drug addition, the plates are incubated for an additional 48 h at 37°C, 5 % CO2, 95 % air, and 100 % relative humidity. For adherent cells, the assay is terminated by the addition of cold TCA. Cells are fixed in situ by the gentle addition of 50 μl of cold 50 % (w/v) TCA (final concentration, 10 % TCA) and incubated for 60 minutes at 4°C. The supernatant is discarded, and the plates are washed five times with tap water and air dried. Sulforhodamine B (SRB) solution (100 μl) at 0.4 % (w/v) in 1 % acetic acid is added to each well, and plates are incubated for 10 minutes at room temperature. After staining, unbound dye is removed by washing five times with 1 % acetic acid and the plates are air dried. Bound stain is subsequently solubilized with 10 mM trizma base, and the absorbance is read on an automated plate reader at a wavelength of 515 nm. For suspension cells, the methodology is the same except that the assay is terminated by fixing settled cells at the bottom of the wells by g ently adding 50 μl of 80 % TCA (final concentration, 16 % TCA). Using the seven absorbance measurements [time zero, (Tz), control growth, (C), and test growth in the presence of drug at the five concentration levels (Ti)], the percentage growth is calculated at each of the drug concentrations levels. Percentage growth inhibition is calculated as:
(§6) [(Ti-Tz)/(C-Tz)] x 100 for concentrations for which Ti>/=Tz
(§7) [(Ti-Tz)/Tz] x 100 for concentrations for which Ti<Tz.
(§8) Three dose response parameters are calculated for each experimental agent. Growth inhibition of […]
(§9) resulting in a 50% reduction in the net protein increase (as measured by SRB staining) in control cells during the drug incubation. The drug concentration resulting in total growth inhibition […]
(§10) (TGI) is calculated from Ti = Tz.

[2] = test system: non-small cell lung cancer cell lines; assay: NCI 60 screen, sub-panel mean; details: NCI-60, non-small cell lung cancer sub-panel
Procedure: as §1, §2, §3, §4, §5, §6, §7, §8, §9, §10

[3] = test system: ovarian cancer cell lines; assay: NCI 60 screen, sub-panel mean; details: NCI-60, ovarian cancer sub-panel
Procedure: as §1, §2, §3, §4, §5, §6, §7, §8, §9, §10

[4] = test system: prostate cancer cell lines; assay: NCI 60 screen, sub-panel mean; details: NCI-60, prostate cancer sub-panel
Procedure: as §1, §2, §3, §4, §5, §6, §7, §8, §9, §10

[5] = test system: renal cancer cell lines; assay: NCI 60 screen, sub-panel mean; details: NCI-60, renal cancer sub-panel
Procedure: as §1, §2, §3, §4, §5, §6, §7, §8, §9, §10

[6] = test system: CAKI-1; assay: NCI 60 cell line screen; details: Homo sapiens; CAKI-1, Renal Cancer; read-out: Percent growth
Method in brief: (§11)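 SRB read-out (515 nm) after 48 h drug exposure, 37 °C, RPMI 1640/5% FBS; five-point dilution series, top conc. 10 µM. Percent growth from Tz, control and treated absorbances; GI50 and TGI derived.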

[7] = test system: HCT-15; assay: NCI 60 cell line screen; details: Homo sapiens; HCT-15, Colon Cancer; read-out: Percent growth
Method in brief: as §11

[8] = test system: HT29; assay: NCI 60 cell line screen; details: Homo sapiens, HT-29; HT29, Colon Cancer; read-out: Percent growth
Method in brief: as §11

[9] = test system: K-562; assay: NCI 60 cell line screen; details: for activity at 10 µM: Homo sapiens, K562, K-562, Leukemia, read-out: Percent growth
Method in brief: as §11

[10] = test system: KM12; assay: NCI 60 cell line screen; details: Homo sapiens; KM12, Colon Cancer; read-out: Percent growth
Method in brief: (§12)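 Growth inhibition is expressed as percent growth versus time-zero and vehicle controls, from SRB absorbance at 515 nm. Compounds span five concentrations (max 10 µM) for 48 h in RPMI 1640 with 5% serum. TGI corresponds to Ti = Tz.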

[11] = test system: MDA-MB-468; assay: NCI 60 cell line screen; details: for activity at 10 µM: Homo sapiens, MDA-MB-468, Breast Cancer, read-out: Percent growth
Method in brief: as §12

[12] = test system: MOLT-4; assay: NCI 60 cell line screen; details: for activity at 10 µM: Homo sapiens, MOLT-4, Leukemia, read-out: Percent growth; for percent inhibition: MOLT-4, NCI-60 heat map analysis
Method in brief: as §12

[13] = test system: NCI-H226; assay: NCI 60 cell line screen; details: for activity at 10 µM: Homo sapiens, NCI-H226, Non-Small Cell Lung Cancer, read-out: Percent growth
Method in brief: as §12

[14] = test system: NCI-H460; assay: NCI 60 cell line screen; details: Homo sapiens; NCI-H460, Non-Small Cell Lung Cancer; read-out: Percent growth
Method in brief: as §11

[15] = test system: OVCAR-4; assay: NCI 60 cell line screen; details: Homo sapiens; OVCAR-4, Ovarian Cancer; read-out: Percent growth
Method in brief: as §12

[16] = test system: RPMI-8226; assay: NCI 60 cell line screen; details: for activity at 10 µM: Homo sapiens, RPMI-8226, Leukemia, read-out: Percent growth
Method in brief: as §12

[17] = test system: SK-MEL-5; assay: NCI 60 cell line screen; details: for activity at 10 µM: Homo sapiens, SK-MEL-5, Melanoma, read-out: Percent growth; for percent inhibition: SK-MEL-5, NCI-60 heat map analysis
Method in brief: as §12

[18] = test system: T-47D; assay: NCI 60 cell line screen; details: for activity at 10 µM: Homo sapiens, T47D, Breast Cancer, read-out: Percent growth; for percent inhibition: NCI-60 heat map analysis
Method in brief: as §12

[19] = test system: U251; assay: NCI 60 cell line screen; details: Homo sapiens, U-251; U251, CNS-Cancer; read-out: Percent growth
Method in brief: as §11

## Cc1ccc(S(=O)(=O)NCCNc2nccc(-n3cnc4ccccc43)n2)cc1 [12g, N-(2-((4-(1H-benzo [d]imidazol-1-yl)pyrimidin-2-yl)amino)ethyl)-4-methyl benzenesulfonamide]
[1]
  mean percent inhibition: around 40%
[2]
  mean percent inhibition: 30%
[3]
  mean percent inhibition: around 25%
[4]
  mean percent inhibition: around 20%
[5]
  mean percent inhibition: around 30%
[6]
  activity at 10 µM: 57.5%
[7]
  activity at 10 µM: 80.2%
[8]
  activity at 10 µM: 90.2%
[9]
  activity at 10 µM: 56.1%
[10]
  activity at 10 µM: 77.4%
[11]
  activity at 10 µM: 51%
[11]; MDA-MB-468, NCI-60 heat map analysis
  percent inhibition: 49%
[12]
  activity at 10 µM: 55.3%
  percent inhibition: around 45%
[13]
  activity at 10 µM: 58.7%
[13]; NCI-H226, NCI-60 heat map analysis
  percent inhibition: around 40%
[14]
  activity at 10 µM: 79%
[15]
  activity at 10 µM: 42.1%
[16]
  activity at 10 µM: 52.5%
[16]; RPMI-8226, NCI-60 heat map analysis
  percent inhibition: around 45%
[17]
  activity at 10 µM: 20.8%
  percent inhibition: 80%
[18]
  activity at 10 µM: 27.6%
  percent inhibition: 73%
[19]
  activity at 10 µM: 85.2%

## O=S(=O)(NCCCNc1nccc(-n2cnc3ccccc32)n1)c1cccc2ccccc12 [12n, N-(3-((4-(1H-benzo [d]imidazol-1-yl)pyrimidin-2-yl)amino)propyl)naphthalene-1-sulfonamide]
[4]
  mean percent inhibition: around 20%
[6]
  activity at 10 µM: 60.5%
[7]
  activity at 10 µM: 81.8%
[8]
  activity at 10 µM: 96.3%
[9]
  activity at 10 µM: 67.6%
[9]; K-562, NCI-60 heat map analysis
  percent inhibition: around 30%
[10]
  activity at 10 µM: 79.8%
[11]
  activity at 10 µM: 76.2%
[12]
  activity at 10 µM: 67%
  percent inhibition: around 30%
[13]
  activity at 10 µM: 77.8%
[14]
  activity at 10 µM: 89.8%
[15]
  activity at 10 µM: 66.7%
[16]
  activity at 10 µM: 69.7%
[17]
  activity at 10 µM: 58.8%
  percent inhibition: 40%
[18]
  activity at 10 µM: 44.7%
  percent inhibition: 56%
[19]
  activity at 10 µM: 90.8%
